# System: human platelet rich plasma
# Assay: Platelet aggregation assay (platelet rich plasma, PRP)
# Type: cell-based
# Details: concentration which inhibits platelet aggregation by 50% relative to control, ester prodrugs preincubated with porcine liver esterase, ADP-induced
# Method: Platelet Aggregation Assay: Venous blood was obtained from the arm of a healthy human donor who was drug-free and aspirin-free for at least two weeks prior to blood collection. Blood was collected into 10 mL citrated Vacutainer tubes. The blood was centrifuged for 15 minutes at 150×g at room temperature, and platelet-rich plasma (PRP) was removed. The remaining blood was centrifuged for 15 minutes at 1500×g at room temperature, and platelet-poor plasma (PPP) was removed. Samples were assayed on a aggregometer (PAP-4 Platelet Aggregation Profiler), using PPP as the blank (100% transmittance). 200 μL of PRP was added to each micro test tube, and transmittance was set to 0%. 20 μL of various agonists (ADP, collagen, arachidonate, epinephrine, thrombin) were added to each tube, and the aggregation profiles were plotted (% transmittance versus time). The results are expressed as % inhibition of agonist-induced platelet aggregation. […] Percent inhibition is calculated using percent aggregation in the presence of the test compound divided by percent aggregation of control, times 100. […]
# Platelet Aggregation Assay; Venous blood was obtained from the arm of a healthy human donor who was drug-free and aspirin-free for at least two weeks prior to blood collection. […] The results are expressed as % inhibition of agonist-induced platelet aggregation. […]
structure (smiles),measurement,value
"CCNC(=N)c1ccc(C2=NOC(CC(=O)NCCC(=O)O)C2)cc1 (racemic) [Example 23, 5(R,S)-3-[3-(4-N-ethylamidinophenyl)isoxazolin-5-ylacetyl]aminopropanoic acid]",IC50,< 10 µM

# — US5446056A, “Isoxazoline compounds useful as fibrinogen receptor antagonists” (The Du Pont Merck Pharmaceutical Company, priority 1994, dated 1995)
